From US6426351B1, “Chelerythrine-based therapies for cancer” (priority 2000, dated 2002)
Where two headings read alike, the source gives them in different places.

Key:
SQ20B = experiment: Clonogenic survival of SQ20B with chelerythrine chloride and adriamycin; type: cell-based, human
[1] = Acute lethality (LD50), intraperitoneal; conditions: mouse, in vivo; intraperitoneal (IP) in mice; read-out: LD50 (dose causing a 50% mortality)
Experimental: Basal activity of the enzyme (the activity in the absence of Ca^++, phosphatidylserine and dioleine) was not affected. In the present invention, the LD50 (dose causing a 50% mortality) was 20 mg/kg intraperitoneal (IP) in mice.

[2] = tested on: MCF7, MCF7ADR, HT29, DaOY and LnCaP cells; experiment: MTT cytotoxicity assay, tumor cell line panel; type: cell-based; conditions: Homo sapiens, exposure to drug for 4 h, range over MCF7, MCF7ADR, read-out: ED50 (effective dose required to inhibit the growth by 50% of the cells)
Experimental: (§1) FIG. 2A depicts that MCF7 (closed circle), MCF7ADR (open circle), HT29 (open square), DAOY (closed triangle) and LnCaP (open triangle) cells were exposed to fresh medium containing increasing concentrations of chelerythrine chloride for 4 h. After 6 days (MCF7, MCF7 ADR, HT29), 7 days (DAOY) or 13 days (LnCAP), MTT analysis was performed to determine cell density. Inhibition of cell growth relative to control (zero drug addition) was calculated for each concentration. Each point represents the mean of three determinations. […] Inhibition of cell growth relative to control (zero drug addition) was calculated for each concentration. […]
(§2) Cytotoxicity was evaluated using modifications of a described MTT assay (Hansen et al., 1989). […] A microplate reader set at 570 nm was used to determine the absorbance. Results are expressed as the fraction of the optical density determined for cells treated with drug compared to those treated with vehicle.
(§3) The cytotoxic effects of chelerythrine were evaluated in 9 human tumor cell lines to assess its spectrum of activity. Chelerythrine decreased cell viability as determined by the MTT assay in a dose-dependent manner in MCF7 breast (wt p53)(Blagosklonny et al., 1995), MCF7ADR breast (resistant to adriamycin), HT29 colon (mutant p53)(Shao et al., 1997), DaOY brain (mutant p53)(U et al., 1998), and LnCaP (mutant p53) (Carroll et al., 1993) prostate cells (FIG. 2). […]

SQ20B cells = experiment: MTT cytotoxicity assay, SQ20B, dependence on exposure time; type: cell-based; conditions: Homo sapiens, read-out: ED50 (the source's name)
Experimental: Cytotoxicity was evaluated using modifications of a described MTT assay (Hansen et al., 1989). Briefly, cells growing as a monolayer were plated at a density of 500 cells/well in 96 well-plates and allowed to grow for 24 h. […] 6-13 days after drug treatment, 25 μl of a 5 mg/ml solution of MTT was added to each well followed 4 h later by the addition of 100 μl lysing buffer (20% sodium dodecyl sulfate, 50% N, N-dimethylformamide and 0.8% acetic acid, pH 4.7) for an additional 22 h. A microplate reader set at 570 nm was used to determine the absorbance. Results are expressed as the fraction of the optical density determined for cells treated with drug compared to those treated with vehicle.
as §3, with “2). The effective dose required to inhibit the growth by 50% of the cells (ED50) ranged between 2 and 5 μM upon exposure to drug for 4 h.” for “2).”

[3] = tested on: SQ-20B, JSQ-3, SCC-35 and SCC61 cells; experiment: MTT cytotoxicity assay, oral tumor cell lines; type: cell-based; conditions: Homo sapiens, SQ20B, range over SQ-20B, read-out: ED50 (the source's name)
Experimental: as §1, §2, §3

SQ-20B cells = experiment: DAPI staining of cell and nuclear morphology (apoptosis); type: cell-based, human; conditions: 5 μM chelerythrine, 72 h following treatment
Experimental: DAPI was used to visualize nuclei […] and overlaid to the phase contrast image. Left, untreated control cells, right 5 μM chelerythrine treated cells.
5×10^5 SQ-20B cells were centrifuged at 1000 rpm and resuspended in approximately 100 μl of media. The cell suspension was then […] with 100 μl of DAPI (4′, 6-iamidino-2-phenylindole, Sigma, 1 μg/ml in PBT [PBS+1% Triton X-100]. One drop of this mixture was then placed on a microslide with a coverslip. The cells were viewed by fluorescence microscopy using an Olympus BX-40 microscope with a 100 Watt Mercury lamp, a 16 or 40×Fluorite objective, N.A. 0.75, (Leco #1-UB527) and a UV filter cube (ex 330-385 nm, em 420 nm, wide band pass, Leco #U-M536). Images were photographed using an Optronics cooled low-light video camera (Leco #DEI-470TB) with a 2× coupler (Leco #HR200-CMT). The image was saved to a digital file at 72 dpi for subsequent image processing with Paint Shop Pro 5 (JASC) running on a Windows NT4 workstation.
The inventors examined whether the concentrations of chelerythrine that decrease viability in the MTT assay induce apoptosis of SQ-20B cells. The inventors examined cell and nuclear morphology by DAPI staining (FIG. 3). Following exposure of SQ-20B cells to 5 μM chelerythrine, morphological changes consistent with apoptosis were observed (FIG. 3A) in nearly 100% of the cells 72 h following treatment.

SQ-20B xenografts = experiment: SQ-20B xenograft tumor growth in nude mice; type: in vivo; conditions: for mean tumor volume: IP
Experimental: Athymic (nude) mice were injected SC in the right hind limb with 5×10^6 SQ20B cells. Tumors were allowed to grow for 8 days at which time treatment was started. Control mice were weighed and injected IP with PBS on days 8, 10, and 12. Treatment group 2 (n=10 were injected once IP on days 8, 10, and 12 with 2.5 mg/kg chelerythrine chloride, treatment group 3 (n=8) were injected once IP on days 8, 10, and 12 with 5 mg/kg chelerythrine chloride, and treatment group 4 (n=8) were injected once IP on days 8, 11 and 14 with 5 mg/kg chelerythrine chloride. Tumor volume was determined on days 8, 10, 13, 15, 17, 21. Each data point represents the mean of 1-3 individual studies +/−SEM. The Mann-Whitney Rank Sum Test (p<0.05) denoted in the graphs by “*”.
SQ-20B (1-5×10^6 tumor cells were injected into the right hind limbs of Sprague-Dawley nude mice (Fredrick Cancer Research Institute, Fredrick Md.). Xenografts were grown for 2-3 wk at which time animals were sorted into treatment groups such that the mean tumor volume was 45 mm^3+/−4.5 mm^3 (SD). At day 0, initial tumor volume was determined by direct measurement with calipers, and tumor volume was deterred and calculated using the equation 1×w^2×0.5 (Hallahan et al., 1995). During treatment tumor volumes were measured twice weekly and are presented as percent of original tumor volume. Data are presented as fractional tumor volume +/−SEM. Significance analyzed using the Mann-Whitney Rank Sum Test (p<0.05) and denoted in the graphs by “*”.
(§4) Control mice (n=12) were weighed and injected IP with PBS on days 8, 10, and 12. To determine the proper injection volume, the weight of a mouse (in grams) was divided by 100, and the resulting number (in μl ) was used. Chelerythrine was dissolved in the corresponding volume of PBS. Mice in treatment group 2 (n=10) were injected IP on days 8, 10, and 12 with […]. Treatment group 3 (n=8) mice revere injected IP on days 8, 11, and 14 with 5 mg/kg chelerythrine chloride. Treatment group 4 mice (n=10) were injected IP on days 8, 11, 14, and 17 with 5 mg/kg chelerythrine chloride. Volume was determined on days 8, 10, 13, 15, 17, 21. Body weight was measured on days 8, 9, 10, 11, 12, 13, 14, 15, 16, 17, 18, 21. Each data point represents the mean of 1-3 individual studies (minimum of 8 mice/treatment groups).
Mice bearing SQ-2QB xenografts (n>8 for all groups) were injected IP with 2.5 mg/kg on days 8, 10, 12 (Group 2, n=10), 5mg/kg on days 8, 10, 12 (Group 3, n=8), and 5 mg/kg on days 8, 11, 14 (Group 4, n=8). […] By day 21, the mean tumor volumes measured 370 mm^3 in control group, 215 mm^3 in group 1, 197 mm^3 in group 2, and 115 mm^3 in group 3. […]

[4] = Body weight and deaths in treated xenograft-bearing mice; type: in vivo; conditions: 2.5-5 mg/kg IP
Experimental: Mice were weighed on days 8, 9, 10, 11, 12, 13, 14, 15, 16, 17, 18, 21. Symbols represent the mean weight of animals in the representative treatment groups.
as §4
At no time did body weight of any study animal fall below 90% of the initial weight at the beginning of treatment. […] Similar results were obtained in two independent studies.

L-1210 tumor cells = conditions: cited from earlier work

Compound	survival (clonogenic) (SQ20B; adriamycin 1 ng/mL alone (0 chelerythrine))	survival (clonogenic) (SQ20B; adriamycin 10 ng/mL alone (0 chelerythrine))	survival (clonogenic) (SQ20B; adriamycin 50 ng/mL alone (0 chelerythrine))	LD50 [1] [mg/kg]	EC50 [2] [nM]	EC50 (SQ20B cells; exposed for 4 h) [nM]	EC50 (SQ20B cells; exposed for 8 h) [nM]	EC50 [3] [nM]	cells with morphological changes consistent with apoptosis (SQ-20B cells) [%]	percent change in volume of treated tumors compared to control tumors (%T/C) (SQ-20B xenografts; day 21, all treatment groups)	mean tumor volume (SQ-20B xenografts; day 21, group 1 as printed) [mm^3]	mean tumor volume (SQ-20B xenografts; day 21, group 2 as printed) [mm^3]	mean tumor volume (SQ-20B xenografts; day 21, group 3 as printed) [mm^3]	treatment related deaths [4]	body weight relative to the initial weight at the beginning of treatment ([4]; any study animal, at any time) [%]	survival (clonogenic) (SQ20B; chelerythrine chloride 2 μM alone (0 ng/mL adriamycin))	survival (clonogenic) (SQ20B; chelerythrine chloride 4 μM alone (0 ng/mL adriamycin))	survival (clonogenic) (SQ20B; chelerythrine chloride 6 μM alone (0 ng/mL adriamycin))	IC50 (L-1210 tumor cells) [nM]
COc1cccc2c1C(=O)c1c(O)c3c(c(O)c1C2=O)C[C@@](O)(C(=O)CO)C[C@@H]3O[C@H]1C[C@H](N)[C@H](O)[C@H](C)O1 [adriamycin, reference compound]	1.09	0.822	0.359																
COc1ccc2c(c[n+](C)c3c4cc5c(cc4ccc23)OCO5)c1OC [chelerythrine, 1,2-dimethoxy-12-methyl[1,3]benzodioxolo[5,6-c]phenanthridinium]				20	2000 to 5000	3700	1800	4000 to 5200	~100	less than 40%	215	197	115	no treatment related deaths	≥ 90	0.99	0.103	0.034	53
